Key:
[1] = target: T1, Ba/F3 cells expressing EGFR A767insASV (Homo sapiens, UniProt P00533, DUP767-769, cells depend on it); assay: Cell viability (Cell Titer Glo), Ba/F3 cells expressing A767insASV; type: cell-based; conditions: 72 hours of treatment, read-out: IC50 values, nM Average
T1 construct: A767insASV|N/A|N/A|Addgene #32066
Method: Cell viability was determined by the Cell Titer Glo assay.
Briefly, stable Ba/F3 cell lines were generated by retroviral transduction of Ba/F3 cell line for 12 hours. […] Three days after transduction, 2 μg/ml puromycin (Invitrogen) was added to the RPMI media. Cell lines were then grown in the absence of IL-3 for two weeks and cell viability was assessed every three days using the Cell Titer Glo assay (Progema).
Briefly, 2000-3000 cells per well were plated in 384-well plates (Greiner Bio-One) in technical triplicate. Cells were treated with seven different concentrations of tyrosine kinase inhibitors or vehicle alone at a final volume of 40 μL per well. After 3 days, 11 μL of Cell Titer Glo was added to each well. Plates were shaken for 15 minutes, and bioluminescence was determined using a FLUOstar OPTIMA multi-mode micro-plate reader (BMG LABTECH). Bioluminescence values were normalized to DMSO treated cells, and normalized values were plotted in GraphPad Prism using non-linear regression fit to normalized data with a variable slope.

[2] = test system: EGFR G719X/T790M; assay: In vitro sensitivity of T790M acquired with an exon 18 point mutation; type: cell-based; conditions: T790M acquired with an exon 18 point mutation (G719X/T790M)
Method: Thus, in certain aspects, the subject is determined to not have a mutation at EGFR C797 and/or T790, such as C797S and/or T790M. […] However, in certain aspects, L858R/T790M/C797S, Exon 19 deletion/T790M/C797s, and exon 20 insertions+ C797S or T790M mutants are resistant to EGFR TKIs.

T1 sequence (P00533 with tags, fused parts or gaps DUP767-769): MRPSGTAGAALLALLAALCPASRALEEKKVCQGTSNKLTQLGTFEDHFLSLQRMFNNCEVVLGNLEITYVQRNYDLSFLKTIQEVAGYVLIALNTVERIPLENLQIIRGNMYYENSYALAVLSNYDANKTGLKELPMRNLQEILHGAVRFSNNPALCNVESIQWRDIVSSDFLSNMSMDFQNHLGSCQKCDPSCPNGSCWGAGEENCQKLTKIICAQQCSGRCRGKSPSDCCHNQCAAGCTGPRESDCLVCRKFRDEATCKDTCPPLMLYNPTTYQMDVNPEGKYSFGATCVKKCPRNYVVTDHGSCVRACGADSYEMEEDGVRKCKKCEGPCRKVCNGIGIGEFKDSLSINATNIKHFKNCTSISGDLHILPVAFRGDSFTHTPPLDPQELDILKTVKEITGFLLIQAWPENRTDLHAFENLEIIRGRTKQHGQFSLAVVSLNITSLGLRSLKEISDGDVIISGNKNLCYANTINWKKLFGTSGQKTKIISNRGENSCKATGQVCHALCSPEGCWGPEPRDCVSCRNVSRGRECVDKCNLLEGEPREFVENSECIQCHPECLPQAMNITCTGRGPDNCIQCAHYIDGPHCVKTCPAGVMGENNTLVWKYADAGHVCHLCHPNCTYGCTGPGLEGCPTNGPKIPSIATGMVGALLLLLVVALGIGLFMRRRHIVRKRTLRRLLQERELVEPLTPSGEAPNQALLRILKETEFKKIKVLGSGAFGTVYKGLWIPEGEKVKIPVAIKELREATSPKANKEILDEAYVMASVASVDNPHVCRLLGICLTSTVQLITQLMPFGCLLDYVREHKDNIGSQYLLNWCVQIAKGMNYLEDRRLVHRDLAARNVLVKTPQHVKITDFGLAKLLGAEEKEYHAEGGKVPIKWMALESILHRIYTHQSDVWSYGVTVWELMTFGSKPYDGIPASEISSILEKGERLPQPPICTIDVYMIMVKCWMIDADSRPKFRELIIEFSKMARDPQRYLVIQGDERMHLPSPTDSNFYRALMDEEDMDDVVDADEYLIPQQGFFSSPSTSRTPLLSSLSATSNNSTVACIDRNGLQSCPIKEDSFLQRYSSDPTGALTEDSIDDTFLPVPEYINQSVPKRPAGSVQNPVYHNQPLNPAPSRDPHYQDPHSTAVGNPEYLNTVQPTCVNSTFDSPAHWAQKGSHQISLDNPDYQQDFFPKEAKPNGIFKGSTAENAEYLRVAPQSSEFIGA

For C=CC(=O)N1CCC(Oc2cc3c(Nc4ccc(Cl)c(Cl)c4F)ncnc3cc2OC)CC1 [Poziotinib, 1-[4-[4-(3,4-dichloro-2-fluoroanilino)-7-methoxyquinazolin-6-yl]oxypiperidin-1-yl]prop-2-en-1-one], the GI50 [1] was 1.62 nM and the sensitivity in vitro [2] was “remain sensitive”.

Source: patent US20220175779A1, “COMPOUNDS AGAINST CANCER BEARING TYROSINE KINASE INHIBITOR RESISTANT EGFR MUTATIONS” (Board of Regents, The University of Texas System, priority 2019, published 2022)
